The EC50 is the concentration giving half of the maximal effect. A high value points to weaker potency.

Data on one molecule can be found in US20250320246A1, “3-AZASTEROID COMPOUNDS FOR THE TREATMENT OF DISEASES RELATED TO MITROCHONDRIAL FUNCTION” (NZP UK LIMITED, priority 2022, published 2025).

SMILES strings stand for the structures.

For test [1], the system named is sporadic PD patient fibroblasts. Nature of the test: Mitochondrial membrane potential (MMP, TMRM) in sporadic PD patient fibroblasts. Type of test: cell-based, human. As to conditions: Homo sapiens, Fibroblast, 24 h, 3 sporadic PD patient fibroblasts. As to the method: (§1) Primary fibroblast cells were cultured continuously in Glucose based medium (high glucose (4500 mg/L) Dulbecco's Modified Eagle's medium (DMEM; Sigma-Aldrich) supplemented with 10% fetal bovine serum (Sigma-Aldrich), 100 IU/mL penicillin, 100 μg/mL streptomycin (Lonza), 1 mM sodium pyruvate (Sigma-Aldrich) and 50 μg/mL uridine (Sigma-Aldrich)). Unless otherwise stated, 24 hours prior to analysis, the Glucose based medium was exchanged for Galactose based medium (glucose-free DMEM (Gibco) with the same supplementation and in addition, 5 mM galactose (Sigma-Aldrich)). All cells were assessed between passage 6-10.
Fibroblasts were cultured and plated into a greiner black 384 μClear® plate at a concentration of 1000 cells per well in 50 μl of media volume. The plates are left overnight in an incubator to allow the fibroblasts to adhere to the plate surface. The following morning the Glucose based medium is replaced with 25 μl of Galactose based medium. The plates were then dosed with the compounds using an ECHO® 550 liquid handling system. The wells were dosed to provide an 8-point concentration range of 0.06 nM-300 nM of compound. After dosing the wells are topped up with a further 25 μl of Galactose based medium and then left in an incubator for 24 hours. After 24 hours, the medium is removed from the wells and replaced with 25 μl phenol free Minimal essential medium supplemented with 10% FBS, 1% Penicillin-streptomycin, 1% sodium pyruvate, 0.1% uridine, 1% non-essential amino acids and 1% MEM vitamins with 80 nM TMRM (Sigma) and 10 μM Hoechst Stain (Sigma). The plate is returned to the incubator for another hour after which the stain medium is removed and replaced with 25 μl Phenol free MEM. The plate is then imaged using an IN Cell high content microscope (GE Healthcare) with fields of view per well in 2 channels, Cy3 excitation 542 nm, emission 604-64 nm; and the DAPI excitation 350 nm, emission 450-55 nm at 37° C. with CO2. After imaging the plate is disposed of and the images are Data mined using the INCell developer Toolkit (GE Healthcare).
After the assays had been repeated in triplicate per line and compound the data was then inputted into Graph pad Prism 7 software suite where a dose response curve is generated using the default “[Agonist] vs response(three parameters)” equation. […]

For test [2] the test system is unchanged. Description: Cellular ATP levels in sporadic PD patient fibroblasts, full ATP assay. Type of test: cell-based, human. As to conditions: Homo sapiens, Fibroblast, 24 h, 3 sporadic PD patient fibroblasts. How it is done:
as §1
The ATP protocol is generally as described in Mortiboys et al 2008. Briefly, fibroblasts were cultured as and plated into white 384 well plates at a concentration of 5000 cells per well in 50 μl of media volume. The plates are left overnight in an incubator to allow the fibroblasts to adhere to the plate surface. The following morning the Glucose based medium is replaced with 25 μl of Galactose based medium. The plates were then spiked with the compounds using a ECHO 550 liquid handling system. The wells were dosed to provide an 8-point concentration range of 0.06 nM-300 nM of compound. After dosing the wells are topped up with a further 25 μl of Galactose based medium and then left in an incubator for 24 hours. Following this incubation, the medium is removed from the plate and the wells are washed twice with sterile PBS. The wells are filled with 25 μl of Sterile PBS followed by 12.5 μl of Lysis solution from the ATPlite™ Luminescence ATP detection assay system (Perkin Elmer), including 16 cell free wells to use as blank controls. The plate is then placed on a rotary shaker for 5 mins at 700 rpm. Following the shaking 12.5 μl of ATP substrate solution (Perkin Elmer) is added to each well and a further 5 min of shaking. The plate is then placed in darkness for 10 minutes prior to reading. Using a PHERAStar® plate reader, luminescence intensity is recorded. Following the ATP assay the plates are immediately assayed for DNA content in a CyQUANT® assay.
Immediately following The ATP assay DNA content is assessed with the CyQUANT® NF Cell Proliferation Assay Kit (ThermoFisher). CyQUANT® buffer is prepared immediately before the assay and is comprised of 1 μl CyQUANT® dye per ml×1 HBSS solution. 12.5 μl of CyQUANT® buffer is added to each well. Plate left in incubator for 1 hour then read on a PHERAStar© Plate reader with excitation at 497 nm and emission at 520 nm.
ATP Quantification for each well is determined using the following formula: […]
After the assays had been repeated in triplicate per line and compound the data was then inputted into Graph pad Prism 7 software suite where a dose response curve is generated using the default “[Agonist] vs response(three parameters)” equation.
From this EC50 values, lowest response and maximal response were taken and used to calculate the Geometric mean between the 5 different lines assessed.

For `C[C@H](CCCC(=O)O)[C@H]1CC[C@H]2[C@@H]3[C@@H](O)C[C@@H]4CNCC[C@]4(C)[C@H]3CC[C@]12C.Cl` [Compound 28b, 3-Aza-7β-hydroxy-25-homo-5β-cholan-25-oic acid hydrochloride], the EC50 in test [1] (8-point range 0.06 nM-300 nM) was found to be 0.00403 µM; in test [2] (8-point range 0.06 nM-300 nM), 0.0329 µM. The Emax in test [1] (max response with highest dose of compound (300 nM), read-out: MMP % of vehicle, top %) was 101%. For the same molecule, the activity at 60 pM in test [1] (max response with lowest dose of compound (0.06 nM), read-out: MMP % of vehicle, bottom %) is 92.8%; in test [2] (max response with lowest dose of compound (0.06 nM), read-out: ATP % of vehicle, bottom %), 94.6%. The Emax at 0.3 µM in test [2] (max response with highest dose of compound (300 nM), read-out: ATP % of vehicle, top %) came out at 138%.
